Measurements reported in patent US20190292167A1, “HETEROAROMATIC COMPOUNDS USEFUL FOR THE TREATMENT OF PROLIFERATIVE DISEASES” (Syros Pharmaceuticals, Inc., priority 2013, published 2019).
Where a name gives a salt, the structure may show the parent alone.

Assays:
MDA-MB231 = assay: Inhibition of cell proliferation, CellTiter-Glo, 72 hour; assay type: cell-based; conditions: Homo sapiens, MDA-MB-231, Breast Cancer/Breast cell line
hTERT-HME1 = assay: as above; assay type: cell-based; conditions: Breast Cancer/Breast cell line
MNNG-Hos Cl#5 = assay: as above; assay type: cell-based; conditions: Osteosarcoma cell line
HL-60 = assay: as above; assay type: cell-based; conditions: Homo sapiens, Blood cancer cell line, read-out: Inhibition of Proliferation HL60
CDK7 = target: T1, CDK7 (Homo sapiens, UniProt P50613); assay: Adapta kinase assay (Life Technologies) against CDK7, co-factors cyclin H and MNAT1; assay type: biochemical; conditions: read-out: CDK7 Inhibition
T1 construct: purchased Life Technologies (Adapta kinase assay service)

MV4-11 = assay: Inhibition of cell proliferation, CellTiter-Glo, 72 hour; assay type: cell-based; conditions: Homo sapiens, Blood cancer cell line
SAOS = assay: as above; assay type: cell-based; conditions: Osteosarcoma cell line
Jurkat = assay: as above; assay type: cell-based; conditions: Homo sapiens, Jurkat, 72 h, Blood cancer cell line; 72 hour; read-out: Inhibition of Proliferation of Jurkat Cells
Procedure: The following cancer cell lines were tested with the media conditions indicated: […]

THP-1 = assay: as above; assay type: cell-based; conditions: Homo sapiens, Blood cancer cell line
MCF-10A = assay: as above; assay type: cell-based; conditions: Homo sapiens, Breast Cancer/Breast cell line, read-out: Inhibition of Proliferation MCF10A
T47D = assay: as above; assay type: cell-based; conditions: Homo sapiens, Breast Cancer/Breast cell line
MCF-7 = assay: as above; assay type: cell-based; conditions: Homo sapiens, MCF7, Breast Cancer/Breast cell line
Hs863T = assay: as above; assay type: cell-based; conditions: Ewing's Sarcoma cell line
Procedure: (§1) • Hs863T—DMEM (4 mM L-Glut, 4.5 g/L Glucose, 1 mM pyruvate, 1.5 g/l bicarb)+10% FBS • Hs822T—DMEM (4 mM L-Glut, 4.5 g/L Glucose, 1 mM pyruvate, 1.5 g/l bicarb)+10% FBS • A673—DMEM (4 mM L-Glut, 4.5 g/L Glucose, 1 mM pyruvate, 1.5 g/l bicarb)+10% FBS • SKES-1—McCoy's 5a Medium Modified (modified—1.5 mM L-glut, 2.2 g/L bicarb)+15% FBS • RD-ES—RPMI 1640+15% FBS.

RD-ES = assay: as above; assay type: cell-based; conditions: Ewing's Sarcoma cell line
Procedure: as §1

Hs822T = assay: as above; assay type: cell-based; conditions: Ewing's Sarcoma cell line
Procedure: as §1

A673 = assay: as above; assay type: cell-based; conditions: Homo sapiens, Ewing's Sarcoma cell line
Procedure: as §1

SKES-1 = assay: as above; assay type: cell-based; conditions: Homo sapiens, SK-ES1, Ewing's Sarcoma cell line, read-out: Inhibition of Proliferation SK-ES
Procedure: as §1

SKBR-3 = assay: as above; assay type: cell-based; conditions: Homo sapiens, SK-BR-3, Breast Cancer/Breast cell line, read-out: Inhibition of Proliferation SKBR3
143B = assay: as above; assay type: cell-based; conditions: Homo sapiens, Osteosarcoma cell line
RS4-11 = assay: as above; assay type: cell-based; conditions: Homo sapiens, Blood cancer cell line

T1 sequence (P50613 whole entry): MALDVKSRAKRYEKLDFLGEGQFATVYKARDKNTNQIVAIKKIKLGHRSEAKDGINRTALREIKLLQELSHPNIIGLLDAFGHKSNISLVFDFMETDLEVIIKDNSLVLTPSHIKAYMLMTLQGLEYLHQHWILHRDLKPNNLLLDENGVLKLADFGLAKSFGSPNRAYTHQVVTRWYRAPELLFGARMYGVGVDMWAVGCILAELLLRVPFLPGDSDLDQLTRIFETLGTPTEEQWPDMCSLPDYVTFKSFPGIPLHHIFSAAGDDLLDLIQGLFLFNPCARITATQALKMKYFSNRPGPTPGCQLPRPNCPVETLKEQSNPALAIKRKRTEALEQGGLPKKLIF
T1 sequence (P51946 whole entry partner): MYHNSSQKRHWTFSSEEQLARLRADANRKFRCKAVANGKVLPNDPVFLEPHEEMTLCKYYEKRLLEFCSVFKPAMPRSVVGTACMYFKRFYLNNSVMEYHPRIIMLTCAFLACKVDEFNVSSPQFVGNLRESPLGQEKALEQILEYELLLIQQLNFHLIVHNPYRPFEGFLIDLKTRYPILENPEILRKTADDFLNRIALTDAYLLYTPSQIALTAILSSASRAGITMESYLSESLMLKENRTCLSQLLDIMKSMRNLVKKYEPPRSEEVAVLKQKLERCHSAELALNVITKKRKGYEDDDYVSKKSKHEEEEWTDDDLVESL
T1 sequence (P51948 whole entry partner): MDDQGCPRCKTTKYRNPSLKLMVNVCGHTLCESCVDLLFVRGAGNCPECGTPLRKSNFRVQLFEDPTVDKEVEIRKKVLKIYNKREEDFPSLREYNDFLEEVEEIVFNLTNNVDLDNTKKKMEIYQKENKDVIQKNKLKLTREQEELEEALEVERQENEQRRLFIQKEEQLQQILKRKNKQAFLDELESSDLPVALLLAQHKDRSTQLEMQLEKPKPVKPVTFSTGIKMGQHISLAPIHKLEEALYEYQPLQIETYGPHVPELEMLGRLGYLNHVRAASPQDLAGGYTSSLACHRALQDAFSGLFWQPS

| Compound | IC50 (MDA-MB231) [nM] | IC50 (hTERT-HME1) [nM] | IC50 (MNNG-Hos Cl#5) [nM] | IC50 (HL-60) [nM] | IC50 (CDK7) [nM] | IC50 (MV4-11) [nM] | IC50 (SAOS) [nM] | IC50 (Jurkat) [nM] | IC50 (THP-1) [nM] | IC50 (MCF-10A) [nM] | IC50 (T47D) [nM] | IC50 (MCF-7) [nM] | IC50 (Hs863T) [nM] | IC50 (RD-ES) [nM] | IC50 (Hs822T) [nM] | IC50 (A673) [nM] | IC50 (SKES-1) [nM] | IC50 (SKBR-3) [nM] | IC50 (143B) [nM] | IC50 (RS4-11) [nM] |
| --- | --- | --- | --- | --- | --- | --- | --- | --- | --- | --- | --- | --- | --- | --- | --- | --- | --- | --- | --- | --- |
| CN(C)C/C=C/C(=O)Nc1ccc(C(=O)N2CC[C@@H](Nc3ncc(Cl)c(-c4c[nH]c5ccccc45)n3)C2)cc1 [Compound 104, (E)-N-(4-((R)-3-(5-chloro-4-(1H-indol-3-yl)pyrimidin-2-ylamino)pyrrolidine-1-carbonyl)phenyl)-4-(dimethylamino)but-2-enamide.TFA] | < 500 | < 500 | > 5000 | < 500 | < 100 | < 500 | < 500 | < 500 | < 500 | < 500 | > 5000 | 500 to 5000 | > 5000 | < 500 | 500 to 5000 | < 500 | < 500 | > 5000 | > 5000 | < 500 |
| CN(C)C/C=C/C(=O)Nc1ccc(C(=O)N2CC[C@@H](Nc3ncc(C#N)c(-c4c[nH]c5ccccc45)n3)C2)cc1 [Compound 103, (E)-N-(4-((R)-3-(5-cyano-4-(1H-indol-3-yl)pyrimidin-2-ylamino)pyrrolidine-1-carbonyl)phenyl)-4-(dimethylamino)but-2-enamide] | < 500 | < 500 | 500 to 5000 | < 500 | < 100 | < 500 | < 500 | < 500 | < 500 | < 500 | > 5000 | > 5000 | > 5000 | < 500 | > 5000 | < 500 | < 500 | > 5000 | > 5000 | < 500 |
| CN(C)C/C=C/C(=O)Nc1ccc(C(=O)N2CCC(Nc3ncc(Cl)c(-c4c[nH]c5ccccc45)n3)CC2)cc1 [Compound 100, (E)-N-(4-(4-(5-chloro-4-(1H-indol-3-yl)pyrimidin-2-ylamino)piperidine-1-carbonyl)phenyl)-4-(dimethylamino)but-2-enamide] | < 500 | < 500 | 500 to 5000 | < 500 | < 100 | < 500 | < 500 | < 500 | < 500 | < 500 | > 5000 | < 500 | > 5000 | < 500 | 500 to 5000 | < 500 | < 500 | > 5000 | > 5000 | < 500 |
| CN(C)C/C=C/C(=O)Nc1ccc(C(=O)N2CCC(Nc3ncc(C#N)c(-c4c[nH]c5ccccc45)n3)CC2)cc1 [Compound 102, (E)-N-(4-(4-(5-cyano-4-(1H-indol-3-yl)pyrimidin-2-ylamino)piperidine-1-carbonyl)phenyl)-4-(dimethylamino)but-2-enamide] | < 500 | < 500 | > 5000 | < 500 | < 100 | < 500 | < 500 | < 500 | < 500 | < 500 | > 5000 | < 500 | > 5000 | < 500 | 500 to 5000 | < 500 | < 500 | > 5000 | > 5000 | < 500 |
| CC(C)[C@]12O[C@H]1[C@@H]1O[C@]13[C@]1(O[C@H]1C[C@H]1C4=C(CC[C@@]13C)C(=O)OC4)[C@@H]2O [Triptolide, triptolide, reference compound] | < 500 | < 500 | < 500 | < 500 |  | < 500 | < 500 |  | < 500 | < 500 | > 5000 | < 500 | > 5000 | < 500 | 500 to 5000 | < 500 | < 500 | < 500 | < 500 | < 500 |
| CN1CC[C@H](c2c(O)cc(O)c3c(=O)cc(-c4ccccc4Cl)oc23)[C@H](O)C1 [Flavopiridol, flavopiridol, reference compound] | < 500 | < 500 | 500 to 5000 | < 500 |  | < 500 | < 500 |  | < 500 | < 500 | > 5000 | 500 to 5000 | > 5000 | < 500 | > 5000 | < 500 | < 500 | < 500 | 500 to 5000 | < 500 |
| CN(C)C/C=C/C(=O)Nc1ccc(C(=O)N2CC[C@H](Nc3ncc(Cl)c(-c4c[nH]c5ccccc45)n3)C2)cc1 [Compound 101, (E)-N-(4-((S)-3-(5-chloro-4-(1H-indol-3-yl)pyrimidin-2-ylamino)pyrrolidine-1-carbonyl)phenyl)-4-(dimethylamino)but-2-enamide] | > 5000 | 500 to 5000 | > 5000 | > 5000 | 100 to 1000 | < 500 | > 5000 | 500 to 5000 | > 5000 | 500 to 5000 | > 5000 | > 5000 | > 5000 | > 5000 | > 5000 | 500 to 5000 | 500 to 5000 | > 5000 | > 5000 | 500 to 5000 |
| CN(C)C/C=C/C(=O)Nc1ccc(S(=O)(=O)N2CC[C@@H](Nc3ncc(Cl)c(-c4c[nH]c5ccccc45)n3)C2)cc1 [Compound 105, (E)-N-(4-((R)-3-(5-chloro-4-(1H-indol-3-yl)pyrimidin-2-ylamino)pyrrolidin-1-ylsulfonyl)phenyl)-4-(dimethylamino)but-2-enamide] |  |  |  |  | < 100 |  |  | 500 to 5000 |  |  |  |  |  |  |  |  |  |  |  |  |
| NCC(=O)Nc1cccc(Nc2ncc(Cl)c(-c3c[nH]c4ccccc34)n2)c1 [Compound 307, 2-amino-N-(3-(5-chloro-4-(1H-indol-3-yl)pyrimidin-2-ylamino)phenyl)acetamide.TFA] |  |  |  |  | < 100 |  |  | 500 to 5000 |  |  |  |  |  |  |  |  |  |  |  |  |
| Nc1ccc(C(=O)N2[C@@H]3CC[C@H]2C[C@@H](Nc2ncc(Cl)c(-c4c[nH]c5ccccc45)n2)C3)cc1 [Compound 302, (4-aminophenyl)((1R,3R,5S)-3-(5-chloro-4-(1H-indol-3-yl)pyrimidin-2-ylamino)-8-aza-bicyclo[3.2.1]octan-8-yl)methanone] |  |  |  |  | > 1000 |  |  | 500 to 5000 |  |  |  |  |  |  |  |  |  |  |  |  |
| C=CC(=O)Nc1ccc(NC(=O)C2CNCC(Nc3ncc(Cl)c(-c4c[nH]c5ccccc45)n3)C2)cc1 (racemic) [Compound 153, (+/−cis)-N-(4-acrylamidophenyl)-5-((5-chloro-4-(1H-indol-3-yl)pyrimidin-2-yl)amino)piperidine-3-carboxamide] |  |  |  |  | < 100 |  |  | < 500 |  |  |  |  |  |  |  |  |  |  |  |  |
| Cc1noc(C)c1-c1nc(N[C@H]2CC[C@@H](NC(=O)c3ccc(NC(=O)/C=C/CN(C)C)cc3)C2)ncc1Cl (racemic) [Compound 122, N-((1R,3S)-3-((5-chloro-4-(3,5-dimethylisoxazol-4-yl)pyrimidin-2-yl)amino)cyclopentyl)-4-((E)-4-(dimethylamino)but-2-enamido)benzamide and N-((1S,3R)-3-((5-chloro-4-(3,5-dimethylisoxazol-4-yl)pyrimidin-2-yl)amino)cyclopentyl)-4-((E)-4-(dimethylamino)but-2-enamido)benzamide] |  |  |  |  | 100 to 1000 |  |  | < 500 |  |  |  |  |  |  |  |  |  |  |  |  |
| CN(C)C/C=C/C(=O)Nc1ccc(CN2CC[C@@H](Nc3ncc(Cl)c(-c4c[nH]c5ccccc45)n3)C2)cc1 [Compound 144, (R,E)-N-(4-((3-((5-chloro-4-(1H-indol-3-yl)pyrimidin-2-yl)amino)pyrrolidin-1-yl)methyl)phenyl)-4-(dimethylamino)but-2-enamide (E)-4-(dimethylamino)but-2-enoate] |  |  |  |  | < 100 |  |  | < 500 |  |  |  |  |  |  |  |  |  |  |  |  |
